≈ marks a conversion by molar mass, not a printed value. Where “and” joins values, the source holds several entries; their conditions need not be identical. Equal entries are not always repeated. Calls of active or inactive are those of the source. The rule behind the calls is not given here.
Tests used:
[1] = system: Mycobacterium tuberculosis; test: (§1) Antimycobacterial activity against isoniazid, rifampicin, ethambutol and pyrazinamide sensitive Mycobacterium tuberculosis H37Rv ATCC 25618 assessed as inhibition of bacterial growth incubated for 7 days by resazurin dye based colorimetric method analysis; format: functional; details: H37Rv ATCC 25618, 168 h, time 7 day
[2] = system: Mycobacterium tuberculosis; test: as §1, with “Potency index, ratio of ethambutol MIC to test compound MIC for antimycobacterial” for “Antimycobacterial”; format: functional; details: time 7 day
[3] = Cytotoxicity against African green monkey Vero cells assessed as reduction in cell population incubated for 48 hrs by MTT assay; format: toxicity, cell-based; details: chlorocebus sabaeus
[4] = Cytotoxicity against mouse J774.A1 cells assessed as reduction in cell population incubated for 48 hrs by MTT assay; format: toxicity, cell-based
[5] = Cytotoxicity against human HepG2 cells assessed as reduction in cell population incubated for 48 hrs by MTT assay; format: toxicity, cell-based
[6] = system: Mycolicibacterium smegmatis; test: Antimycobacterial activity against Mycobacterium smegmatis ATCC607 incubated for 24 hrs by resazurin dye based broth microdilution method; format: functional
Staphylococcus aureus = test: Antibacterial activity against Staphylococcus aureus ATCC 25923 incubated for 18 hrs by resazurin dye based broth microdilution method; format: functional
Klebsiella pneumoniae = test: Antibacterial activity against Klebsiella pneumoniae ATCC 13883 incubated for 18 hrs by resazurin dye based broth microdilution method; format: functional
[7] = system: Mycobacterium tuberculosis; test: Additive antimycobacterial activity against Mycobacterium tuberculosis H37Rv ATCC 25618 incubated for 7 days by resazurin dye based two-dimensional micro dilution checkerboard assay in presence of ethambutol; format: functional; details: time 7 day
[8] = system: Mycobacterium tuberculosis; test: Additive antimycobacterial activity against Mycobacterium tuberculosis H37Rv ATCC 25618 incubated for 7 days by resazurin dye based two-dimensional micro dilution checkerboard assay in presence of isoniazid; format: functional; details: time 7 day
[9] = system: Mycobacterium tuberculosis; test: Additive antimycobacterial activity against Mycobacterium tuberculosis H37Rv ATCC 25618 incubated for 7 days by resazurin dye based two-dimensional micro dilution checkerboard assay in presence of amikacin; format: functional; details: time 7 day
[10] = system: Mycobacterium tuberculosis; test: Additive antimycobacterial activity against Mycobacterium tuberculosis H37Rv ATCC 25618 incubated for 7 days by resazurin dye based two-dimensional micro dilution checkerboard assay in presence of levofloxacin; format: functional; details: time 7 day
[11] = system: Mycobacterium tuberculosis; test: Additive antimycobacterial activity against Mycobacterium tuberculosis H37Rv ATCC 25618 assessed as fractional inhibitory concentration index incubated for 7 days by resazurin dye based two-dimensional micro dilution checkerboard assay in presence of ethambutol; format: functional; details: time 7 day
[12] = system: Mycobacterium tuberculosis; test: Additive antimycobacterial activity against Mycobacterium tuberculosis H37Rv ATCC 25618 assessed as fractional inhibitory concentration index incubated for 7 days by resazurin dye based two-dimensional micro dilution checkerboard assay in presence of isoniazid; format: functional; details: time 7 day
[13] = system: Mycobacterium tuberculosis; test: Additive antimycobacterial activity against Mycobacterium tuberculosis H37Rv ATCC 25618 assessed as fractional inhibitory concentration index incubated for 7 days by resazurin dye based two-dimensional micro dilution checkerboard assay in presence of amikacin; format: functional; details: time 7 day
[14] = system: Mycobacterium tuberculosis; test: Additive antimycobacterial activity against Mycobacterium tuberculosis H37Rv ATCC 25618 assessed as fractional inhibitory concentration index incubated for 7 days by resazurin dye based two-dimensional micro dilution checkerboard assay in presence of levofloxacin; format: functional; details: time 7 day
[15] = system: Mycolicibacterium smegmatis; test: Antimycobacterial activity against Mycobacterium smegmatis ATCC607 assessed as reduction in bacterial viability at 16 uM incubated for 24 hrs by time kill assay relative to control; format: functional
[16] = system: Mycolicibacterium smegmatis; test: Antimycobacterial activity against Mycobacterium smegmatis ATCC607 assessed as reduction in bacterial viability at 16 uM measured after 72 hrs by time kill assay in presence of rifampicin relative to control; format: functional
[17] = system: Mycobacterium tuberculosis; test: Additive antimycobacterial activity against Mycobacterium tuberculosis H37Rv ATCC 25618 assessed as fractional inhibitory concentration index incubated for […] by micro dilution checkerboard assay in presence of rifampicin; format: functional
[18] = system: Mycobacterium tuberculosis; test: Antimycobacterial activity against Mycobacterium tuberculosis H37Rv ATCC 25618 incubated for 7 days by resazurin dye based two-dimensional micro dilution checkerboard assay in presence of rifampicin; format: functional; details: time 7 day
[19] = system: Mycobacterium tuberculosis; test: Antimycobacterial activity against Mycobacterium tuberculosis H37Rv ATCC 25618 assessed as fractional inhibitory concentration index incubated for 7 days by resazurin dye based two-dimensional micro dilution checkerboard assay in presence of rifampicin; format: functional; details: time 7 day
[20] = system: Mycobacterium tuberculosis; test: Antimycobacterial activity against Mycobacterium tuberculosis H37Rv ATCC 25618 incubated for 7 days by resazurin dye based two-dimensional micro dilution checkerboard assay in presence of 1-(benzyloxy)heptadecan-2-amine; format: functional; details: time 7 day
[21] = system: Mycobacterium tuberculosis; test: Antimycobacterial activity against Mycobacterium tuberculosis H37Rv ATCC 25618 incubated for 7 days by resazurin dye based two-dimensional micro dilution checkerboard assay in presence of 1-((3,4,5-trimethoxybenzyl)oxy)heptadecan-2-amine; format: functional; details: time 7 day
[22] = system: Mycolicibacterium smegmatis; test: Antimycobacterial activity against Mycobacterium smegmatis ATCC607 assessed as reduction in bacterial viability at 19.5 uM incubated for 24 hrs by time kill assay relative to control; format: functional
[23] = system: Mycolicibacterium smegmatis; test: Antimycobacterial activity against Mycobacterium smegmatis ATCC607 infected in mouse J774 cells assessed as reduction in intracellular bacterial count at 19.5 to 39 uM measured after 24 hrs; format: functional, organism-based; details: dose 19.5-39 µM
[24] = system: Mycobacterium tuberculosis; test: Synergistic antimycobacterial activity against Mycobacterium tuberculosis H37Rv ATCC 25618 incubated for 7 days by resazurin dye based two-dimensional micro dilution checkerboard assay in presence of rifampicin; format: functional; details: time 7 day
[25] = system: Mycobacterium tuberculosis; test: Synergistic antimycobacterial activity against Mycobacterium tuberculosis H37Rv ATCC 25618 assessed as fractional inhibitory concentration index incubated for 7 days by resazurin dye based two-dimensional micro dilution checkerboard assay in presence of rifampicin; format: functional; details: time 7 day
[26] = system: Mycobacterium tuberculosis; test: Antimycobacterial activity against Mycobacterium tuberculosis H37Rv ATCC 25618 assessed as reduction in concentration required to inhibit bacterial growth incubated for 7 days by resazurin dye based two-dimensional micro dilution checkerboard assay in presence of rifampicin relative to control; format: functional; set-up: scale not given: the % may be the effect or the level left; details: time 7 day
[27] = system: Mycolicibacterium smegmatis; test: Antimycobacterial activity against Mycobacterium smegmatis ATCC607 infected in mouse J774 cells assessed as reduction in intracellular bacterial count at 32 uM measured after 6 hrs relative to control; format: functional; set-up: scale not given: the % may be the effect or the level left
[28] = system: Mycolicibacterium smegmatis; test: Intracellular antimycobacterial activity against Mycobacterium smegmatis ATCC607 infected in mouse J774 cells assessed as reduction in bacterial count at 16 to 32 uM measured after 24 hrs; format: functional, organism-based; details: dose 16-32 µM
[29] = system: Mycolicibacterium smegmatis; test: Antimycobacterial activity against Mycobacterium smegmatis ATCC607 infected in mouse J774 cells assessed as reduction in intracellular bacterial count at 2 times MIC measured after 24 hrs relative to control; format: functional; set-up: scale not given: the % may be the effect or the level left
[30] = system: Mycolicibacterium smegmatis; test: Antimycobacterial activity against Mycobacterium smegmatis ATCC607 infected in mouse J774 cells assessed as log reduction in intracellular bacterial count at 2 times MIC measured after 24 hrs relative to control; format: functional
[31] = system: Mycolicibacterium smegmatis; test: Antimycobacterial activity against Mycobacterium smegmatis ATCC607 infected in mouse J774 cells assessed as reduction in intracellular bacterial count at MIC in presence of rifampicin measured for 24 hrs relative to control; format: functional; set-up: scale not given: the % may be the effect or the level left
[32] = system: Mycobacterium tuberculosis; test: Antimycobacterial activity against Mycobacterium tuberculosis H37Rv ATCC 25618 assessed as induction of morphological changes by measuring extrusion of cytosolic material at MIC incubated for 96 hrs by TEM analysis; format: functional, organism-based
[33] = system: Mycobacterium tuberculosis; test: Antimycobacterial activity against Mycobacterium tuberculosis H37Rv ATCC 25618 assessed as induction of morphological changes by measuring disruption and discontinuity of the bacterial envelope at MIC incubated for 96 hrs by TEM analysis; format: functional, organism-based
[34] = system: Mycobacterium tuberculosis; test: Antimycobacterial activity against Mycobacterium tuberculosis H37Rv ATCC 25618 assessed as induction of morphological changes by measuring increase in lipid inclusions at MIC incubated for 96 hrs by TEM analysis; format: functional, organism-based
[35] = system: Mycolicibacterium smegmatis; test: Antimycobacterial activity against Mycobacterium smegmatis ATCC607 assessed as reduction in bacterial viability at 16 uM by time kill assay; format: functional, organism-based; details: time 0-72 hrs, TDE = time-dependent effect
[36] = system: Mycolicibacterium smegmatis; test: Antimycobacterial activity against Mycobacterium smegmatis ATCC607 infected in mouse J774 cells assessed as log reduction in intracellular bacterial count at MIC in presence of rifampicin measured for 24 hrs; format: functional
[37] = system: Mycobacterium tuberculosis; test: Antimycobacterial activity against Mycobacterium tuberculosis H37Rv ATCC 25618 assessed as fractional inhibitory concentration incubated for 7 days in presence of 2-aminoheptadecan-1-ol by resazurin dye based two-dimensional micro dilution checkerboard assay; format: functional; details: time 7 day

SMILES | MIC [1] | Ratio [2] | CC50 at 48 h [3] [µM] | CC50 at 48 h [4] [µM] | CC50 at 48 h [5] [µM] | MIC [6] [µM] | MIC (Staphylococcus aureus) [µM] | MIC (Klebsiella pneumoniae) [µM] | FIC [7] | FIC [8] | FIC [9] | FIC [10] | fractional inhibitory concentration index (FICI) [11] | fractional inhibitory concentration index (FICI) [12] | fractional inhibitory concentration index (FICI) [13] | fractional inhibitory concentration index (FICI) [14] | Activity [15] [%] | Activity [16] [%] | FIC [20] | FIC [21] | further results
CCCCCCCCCCCCCCCC(N)COCc1ccccc1 (stereo not drawn) | 4.5 µM (≈ 1.63 µg/mL) | 80 | 42.2 | 5.94 | 99.2 | 16 (≈ 5.79 µg/mL) | 16 (≈ 5.79 µg/mL) | 128 (≈ 46.3 µg/mL) | 0.5 | 0.25 | 0.5 | 0.25 | 1 | 0.75 | 0.75 | 0.75 | 24.56 | >99.9 | – | – | fractional inhibitory concentration index (FICI) [17]: 0.56; FIC [18]: 0.5; fractional inhibitory concentration index (FICI) [19]: 0.56
CO[C@H]1/C=C/O[C@@]2(C)Oc3c(C)c(O)c4c(O)c(c(/C=N/N5CCN(C)CC5)c(O)c4c3C2=O)NC(=O)/C(C)=C\C=C\[C@H](C)[C@H](O)[C@@H](C)[C@@H](O)[C@@H](C)[C@H](OC(C)=O)[C@@H]1C [RIFAMPIN] | 0.04 µM and 0.03 µg/mL | – | – | – | – | 19.5 (≈ 16 µg/mL) | – | – | – | – | – | – | – | – | – | – | – | – | 0.063 | 0.25 | Activity [22]: 27%; Activity [23]: Active
CCCCCCCCCCCCCCCC(N)COCc1cc(OC)c(OC)c(OC)c1 (stereo not drawn) | 8 µM (≈ 3.61 µg/mL) | 45 | 17.7 | 120 | 149 | 16 (≈ 7.23 µg/mL) | ≤ 4 | 512 (≈ 231 µg/mL) | 0.013 | 0.125 | 0.126 | 0.127 | 0.63 | 0.63 | 0.63 | 0.63 | 99.9 | >99.9 | – | – | FIC [24]: 0.25; fractional inhibitory concentration index (FICI) [25]: 0.5; Activity [26]: 75%; Activity [27]: 6.2%; Activity [28]: Active; Activity [29]: 33.3%; Activity [30]: 1.9 log10CFU/ml; Activity [31]: 12.2%; Activity [32]: Active; Activity [33]: Active; Activity [34]: Active; Activity [35]: Tde; Activity [36]: >1 log10CFU/ml
CC[C@@H](CO)NCCN[C@@H](CC)CO [ETHAMBUTOL] | 3.6 µM and 1 µg/mL | 100 | 641 | > 1440 | > 1440 | – | – | – | – | – | – | – | – | – | – | – | – | – | 0.5 | 0.5 | FIC [37]: 0.125; Activity [32]: Active; Activity [33]: Active; Activity [34]: Active
CCCCCCCCCCCCCCCC(N)CO (stereo not drawn) | 1.52 µM (≈ 0.413 µg/mL) | 237 | 125 | 10.2 | 129 | 128 (≈ 34.8 µg/mL) | 16 (≈ 4.34 µg/mL) | 512 (≈ 139 µg/mL) | 0.5 | 0.25 | 0.5 | 0.5 | 0.63 | 0.75 | 0.56 | 0.53 | – | – | – | – | FIC [24]: 0.25; fractional inhibitory concentration index (FICI) [25]: 0.38; Activity [26]: 87.5%
